Source: PubChem BioAssay (NCI)
Several values for one entry are separate records, joined by “and”; a condition that tells them apart may be missing. Identical values can stand only once.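 Where inhibition never reached the appropriate level, the endpoint shown equals the highest concentration tested. Otherwise, values were interpolated linearly from a five-concentration, 48-hour dose response in 96-well plates. GI50 is the concentration that inhibits growth by half. At the TGI there is no net growth.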

What was measured:
Experiment in all cases: DTP human tumour cell line panel, 48 h
786-0 renal = system: 786-0 renal
A498 renal = system: A498 renal
A549 NSCLC = system: A549 NSCLC
ACHN renal = system: ACHN renal
BT-549 breast = system: BT-549 breast
CAKI-1 renal = system: CAKI-1 renal
CCRF-CEM leukemia = system: CCRF-CEM leukemia
COLO 205 colon = system: COLO 205 colon
DU-145 prostate = system: DU-145 prostate
EKVX NSCLC = system: EKVX NSCLC
HCC-2998 colon = system: HCC-2998 colon
HCT-116 colon = system: HCT-116 colon
HCT-15 colon = system: HCT-15 colon
HOP-62 NSCLC = system: HOP-62 NSCLC
HS 578T breast = system: HS 578T breast
HT29 colon = system: HT29 colon
IGROV1 ovarian = system: IGROV1 ovarian
K-562 leukemia = system: K-562 leukemia
KM12 colon = system: KM12 colon
M14 melanoma = system: M14 melanoma
MALME-3M melanoma = system: MALME-3M melanoma
MCF7 breast = system: MCF7 breast
MDA-MB-231 breast = system: MDA-MB-231 breast
MDA-MB-435 = system: MDA-MB-435
MOLT-4 leukemia = system: MOLT-4 leukemia
NCI-H226 lung = system: NCI-H226 lung
NCI-H23 lung = system: NCI-H23 lung
NCI-H460 lung = system: NCI-H460 lung
NCI-H522 lung = system: NCI-H522 lung
NCI/ADR-RES ovarian = system: NCI/ADR-RES ovarian
OVCAR-3 ovarian = system: OVCAR-3 ovarian
OVCAR-4 ovarian = system: OVCAR-4 ovarian
OVCAR-5 ovarian = system: OVCAR-5 ovarian
OVCAR-8 ovarian = system: OVCAR-8 ovarian
PC-3 prostate = system: PC-3 prostate
RXF 393 renal = system: RXF 393 renal
SF-268 CNS = system: SF-268 CNS
SF-295 CNS = system: SF-295 CNS
SF-539 CNS = system: SF-539 CNS
SK-MEL-2 melanoma = system: SK-MEL-2 melanoma
SK-MEL-5 melanoma = system: SK-MEL-5 melanoma
SK-OV-3 ovarian = system: SK-OV-3 ovarian
SN12C renal = system: SN12C renal
SNB-19 CNS = system: SNB-19 CNS
SNB-75 CNS = system: SNB-75 CNS
SR leukemia = system: SR leukemia
T-47D breast = system: T-47D breast
TK-10 renal = system: TK-10 renal
U251 CNS = system: U251 CNS
UACC-257 melanoma = system: UACC-257 melanoma
UACC-62 melanoma = system: UACC-62 melanoma
UO-31 renal = system: UO-31 renal
HL-60(TB) leukemia = system: HL-60(TB) leukemia
HOP-92 NSCLC = system: HOP-92 NSCLC
LOX IMVI melanoma = system: LOX IMVI melanoma
RPMI-8226 leukemia = system: RPMI-8226 leukemia
SK-MEL-28 melanoma = system: SK-MEL-28 melanoma
SW-620 colon = system: SW-620 colon

## O=c1oc2ccccc2nc1/C=C(\O)c1ccc([N+](=O)[O-])cc1
786-0 renal
  TGI: > 100000 nM
A498 renal
  TGI: > 100000 nM
A549 NSCLC
  TGI: > 100000 nM
ACHN renal
  TGI: > 100000 nM
BT-549 breast
  TGI: > 100000 nM
CAKI-1 renal
  TGI: > 100000 nM
CCRF-CEM leukemia
  TGI: > 100000 nM
COLO 205 colon
  TGI: > 100000 nM
DU-145 prostate
  TGI: > 100000 nM
EKVX NSCLC
  TGI: > 100000 nM
HCC-2998 colon
  TGI: > 100000 nM
HCT-116 colon
  TGI: > 100000 nM
HCT-15 colon
  TGI: > 100000 nM
HOP-62 NSCLC
  TGI: > 100000 nM
HS 578T breast
  TGI: 95100 nM
HT29 colon
  TGI: > 100000 nM
IGROV1 ovarian
  TGI: > 100000 nM
K-562 leukemia
  TGI: > 100000 nM
KM12 colon
  TGI: > 100000 nM
M14 melanoma
  TGI: > 100000 nM
MALME-3M melanoma
  TGI: > 100000 nM
MCF7 breast
  TGI: > 100000 nM
MDA-MB-231 breast
  TGI: > 100000 nM
MDA-MB-435
  TGI: > 100000 nM
MOLT-4 leukemia
  TGI: > 100000 nM
NCI-H226 lung
  TGI: > 100000 nM
NCI-H23 lung
  TGI: > 100000 nM
NCI-H460 lung
  TGI: > 100000 nM
NCI-H522 lung
  TGI: > 100000 nM
NCI/ADR-RES ovarian
  TGI: > 100000 nM
OVCAR-3 ovarian
  TGI: > 100000 nM
OVCAR-4 ovarian
  TGI: > 100000 nM
OVCAR-5 ovarian
  TGI: > 100000 nM
OVCAR-8 ovarian
  TGI: > 100000 nM
PC-3 prostate
  TGI: > 100000 nM
RXF 393 renal
  TGI: > 100000 nM
SF-268 CNS
  TGI: > 100000 nM
SF-295 CNS
  TGI: > 100000 nM
SF-539 CNS
  TGI: > 100000 nM
SK-MEL-2 melanoma
  TGI: > 100000 nM
SK-MEL-5 melanoma
  TGI: > 100000 nM
SK-OV-3 ovarian
  TGI: > 100000 nM
SN12C renal
  TGI: > 100000 nM
SNB-19 CNS
  TGI: > 100000 nM
SNB-75 CNS
  TGI: > 100000 nM
SR leukemia
  TGI: > 100000 nM
T-47D breast
  TGI: > 100000 nM
TK-10 renal
  TGI: > 100000 nM
U251 CNS
  TGI: > 100000 nM
UACC-257 melanoma
  TGI: > 100000 nM
UACC-62 melanoma
  TGI: > 100000 nM
UO-31 renal
  TGI: > 100000 nM

## CN(C)C1CCN(C(=O)c2ccc(NC(=O)Nc3ccc(-c4nc(N5CCOCC5)nc(N5CCOCC5)n4)cc3)cc2)CC1
786-0 renal
  GI50: 237 nM and 136 nM and 571 nM
  TGI: 2820 nM and 2500 nM and 8530 nM
A498 renal
  GI50: 39.1 nM and 30 nM and 5.66 nM
  TGI: 282 nM and 154 nM and 78.8 nM
A549 NSCLC
  GI50: 13.2 nM and 18.3 nM and 41.7 nM
  TGI: 232 nM and 360 nM and 1020 nM
ACHN renal
  GI50: 1420 nM and 1060 nM
  TGI: > 100000 nM
BT-549 breast
  GI50: 18 nM and 19.9 nM and 43.4 nM
  TGI: 239 nM and 206 nM and 635 nM
CAKI-1 renal
  GI50: 4160 nM and 1490 nM and 496 nM
CCRF-CEM leukemia
  GI50: 21.7 nM and 49.1 nM and 104 nM
COLO 205 colon
  GI50: 13.6 nM and 33.4 nM and 12 nM
  TGI: 155 nM and 545 nM and 188 nM
DU-145 prostate
  GI50: 15.7 nM and 15.6 nM and 25.8 nM
  TGI: 14600 nM and 2500 nM and 7510 nM
EKVX NSCLC
  GI50: 15.8 nM and 20.3 nM and 40.4 nM
HCC-2998 colon
  GI50: 11.8 nM and 24 nM and 10.2 nM
  TGI: 839 nM and 2500 nM and 1030 nM
HCT-116 colon
  GI50: 28.9 nM and 44.1 nM and 35.9 nM
  TGI: 5910 nM and 2500 nM and 2800 nM
HCT-15 colon
  GI50: 3080 nM and 2190 nM
  TGI: > 100000 nM
HL-60(TB) leukemia
  GI50: 244 nM and 45.7 nM and 52.6 nM
  TGI: > 20400 nM and 2500 nM and 8910 nM
HOP-62 NSCLC
  GI50: 22 nM and 102 nM and 32.4 nM
  TGI: 382 nM and 1900 nM and 1100 nM
HOP-92 NSCLC
  GI50: < 10 nM and 6.27 nM and 13.8 nM
  TGI: 28.8 nM and 54.4 nM and 116 nM
HS 578T breast
  GI50: < 10 nM and 8.79 nM and 25 nM
  TGI: 61 nM and 69.7 nM and 343 nM
HT29 colon
  GI50: 13.8 nM and 15.3 nM and 13.1 nM
  TGI: 266 nM and 2500 nM and 302 nM
IGROV1 ovarian
  GI50: < 10 nM and 7.88 nM and 10.3 nM
  TGI: 55.3 nM and 57.4 nM and 141 nM
K-562 leukemia
  GI50: 130 nM and 35.7 nM and 132 nM
KM12 colon
  GI50: 35.5 nM and 42.3 nM and 43.7 nM
  TGI: 7730 nM and 2500 nM and 2360 nM
LOX IMVI melanoma
  GI50: < 10 nM and 11.1 nM and 29.6 nM
M14 melanoma
  GI50: 230 nM and 144 nM and 29.8 nM
  TGI: 5240 nM and 2500 nM and 1170 nM
MALME-3M melanoma
  GI50: 13.8 nM and 38.2 nM and 8.99 nM
  TGI: 53 nM and 240 nM and 54 nM
MCF7 breast
  GI50: 6.65 nM and 6.04 nM
  TGI: 2500 nM and > 10000 nM
MDA-MB-231 breast
  GI50: < 11.5 nM and 12.8 nM and 16.8 nM
  TGI: 1710 nM and 2500 nM and 286 nM
MDA-MB-435
  GI50: 14.8 nM and 13 nM and 22.1 nM
  TGI: 133 nM and 284 nM and 324 nM
MOLT-4 leukemia
  GI50: 31.1 nM and 18 nM and 77.2 nM
NCI-H226 lung
  TGI: 380 nM and 1950 nM and 257 nM
NCI-H23 lung
  GI50: 36.8 nM and 29.7 nM and 73.2 nM
  TGI: 15700 nM and 2500 nM and 2300 nM
NCI-H460 lung
  GI50: 29 nM and 33.4 nM and 60.8 nM
NCI-H522 lung
  GI50: 10.2 nM and 10.3 nM and 24.6 nM
  TGI: 75.8 nM and 207 nM and 371 nM
NCI/ADR-RES ovarian
  GI50: 29400 nM and 4870 nM
  TGI: > 100000 nM
OVCAR-3 ovarian
  GI50: 14.8 nM and 13.9 nM and 28.2 nM
  TGI: 603 nM and 366 nM and 935 nM
OVCAR-4 ovarian
  GI50: < 10 nM and 7.76 nM and 12.7 nM
OVCAR-5 ovarian
  GI50: 16.7 nM and 31.7 nM and 16.6 nM
  TGI: 325 nM and 2500 nM and 331 nM
OVCAR-8 ovarian
  GI50: 54.5 nM and 92.6 nM and 437 nM
PC-3 prostate
  GI50: < 10 nM and 10.8 nM and 30.9 nM
  TGI: 407 nM and 216 nM and 1060 nM
RPMI-8226 leukemia
  GI50: 40.4 nM and 61.5 nM and 97.8 nM
RXF 393 renal
  GI50: 23 nM and 27.1 nM and 210 nM
SF-268 CNS
  GI50: 22.9 nM and 20.7 nM and 43.4 nM
SF-295 CNS
  GI50: 73.2 nM and 71.1 nM and 639 nM
  TGI: 577 nM and 502 nM and 3520 nM
SF-539 CNS
  GI50: < 12.9 nM and 14.3 nM and 41.6 nM
SK-MEL-2 melanoma
  GI50: 23.6 nM and 24.3 nM and 19.6 nM
  TGI: 74.4 nM and 113 nM and 90 nM
SK-MEL-28 melanoma
  GI50: 23.1 nM and 39.2 nM and 15.9 nM
  TGI: 245 nM and 248 nM and 144 nM
SK-MEL-5 melanoma
  GI50: 61.3 nM and 548 nM
  TGI: 323 nM and 2180 nM
SK-OV-3 ovarian
  GI50: < 10 nM and 7.32 nM and 20.4 nM
  TGI: 48.5 nM and 43.4 nM and 188 nM
SN12C renal
  GI50: < 12.9 nM and 13.3 nM and 20.8 nM
  TGI: 13100 nM and 2500 nM and > 10000 nM
SNB-19 CNS
  GI50: < 12.3 nM and 13.1 nM and 17.4 nM
  TGI: 4230 nM and 2500 nM and 875 nM
SNB-75 CNS
  GI50: < 10 nM and 5.85 nM and 5.68 nM
  TGI: 16.4 nM and 42.7 nM and 78.3 nM
SR leukemia
  GI50: 66.6 nM and 12.3 nM
SW-620 colon
  GI50: 34.6 nM and 68.9 nM and 30 nM
T-47D breast
  GI50: < 10 nM and 3.86 nM and 5.6 nM
  TGI: 34.5 nM and 17.6 nM and 88.4 nM
TK-10 renal
  GI50: 363 nM and 389 nM and 122 nM
  TGI: 1840 nM and 1560 nM and 2500 nM
U251 CNS
  GI50: 17.1 nM and 11.6 nM and 37.5 nM
  TGI: 15100 nM and 2500 nM and 2440 nM
UACC-257 melanoma
  GI50: 28.9 nM and 63.3 nM and 26.6 nM
  TGI: 151 nM and 386 nM and 243 nM
UACC-62 melanoma
  GI50: 23.3 nM and 16.9 nM and 12.5 nM
  TGI: 109 nM and 121 nM and 127 nM
